Test results taken from ChEMBL document CHEMBL5365411, “Synthesis of 1-(4-(dimethylamino)phenyl)-3,4-diphenyl-1H-pyrrole-2,5-dione analogues and their anti-inflammatory activities in lipopolysaccharide-induced BV2 cells” (Bioorg Med Chem Lett, 2023).
pIC50: −log10 of the molar value. Activity calls are given as the source filed them. The calls are words filed in the database; no cut-off is given here.

Tests used:
[1] = Cytotoxicity against LPS-induced mouse BV-2 cells assessed as cell viability at 20 uM incubated for 24 hrs by MTT assay relative to control; format: toxicity, cell-based; conditions: LPS-induced BV-2 cells, read-out: Activity
BV-2 [2] = assay: Inhibition of LPS-induced NO release in mouse BV-2 cells at 20 uM incubated for 24 hrs by Griess assay relative to control; format: functional
BV-2 [3] = assay: Inhibition of LPS-induced NO release in mouse BV-2 cells up to 100 uM incubated for 24 hrs by Griess assay; format: functional, cell-based
RAW264.7 = assay: Inhibition of LPS-induced NO release in mouse RAW264.7 cells at 15 uM incubated for 24 hrs by Griess assay relative to control; format: functional
BV-2 [4] = assay: Inhibition of LPS-induced NO release in mouse BV-2 cells incubated for 24 hrs by Griess assay; format: functional, cell-based; conditions: for pIC50: BV-2, 24 h
BV-2 [5] = assay: Anti-inflammatory activity against LPS-induced mouse BV-2 cells assessed as reduction in COX-2 protein expression pre-incubated for 1 hrs followed by LPS addition and measured after 18 hrs by Western blot analysis; format: functional, cell-based; conditions: dose 5-20 µM, time 19.0 hrs
BV-2 [6] = assay: Anti-inflammatory activity against LPS-induced mouse BV-2 cells assessed as reduction in iNOS mRNA expression pre-incubated for 1 hrs followed by LPS addition and measured after 6 hrs by RT-PCR method; format: functional, cell-based; conditions: dose 5-20 µM, time 7.0 hrs
BV-2 [7] = assay: Cytotoxicity against LPS-induced mouse BV-2 cells assessed as cell viability at 2.5 to 20 uM incubated for 24 hrs by MTT assay; format: toxicity, cell-based; conditions: bv-2, 24 h, dose 2.5-20 µM
BV-2 [8] = assay: Anti-inflammatory activity against LPS-induced mouse BV-2 cells assessed as reduction in IL-6 mRNA expression pre-incubated for 1 hrs followed by LPS addition and measured after 6 hrs by RT-PCR method; format: functional, cell-based; conditions: dose 5-20 µM, time 7.0 hrs
BV-2 [9] = assay: Anti-inflammatory activity against LPS-induced mouse BV-2 cells assessed as reduction in iNOS protein expression pre-incubated for 1 hrs followed by LPS addition and measured after 18 hrs by Western blot analysis; format: functional, cell-based; conditions: dose 5-20 µM, time 19.0 hrs
BV-2 [10] = assay: Anti-inflammatory activity against LPS-induced mouse BV-2 cells assessed as reduction in COX-2 mRNA expression pre-incubated for 1 hrs followed by LPS addition and measured after 6 hrs by RT-PCR method; format: functional, cell-based; conditions: dose 5-20 µM, time 7.0 hrs
[11] = target: c-Jun N-terminal kinase (Mus musculus) (UniProt Q91Y86+Q9WTU6+Q61831); assay: Inhibition of LPS-induced JNK phosphorylation in mouse BV-2 cells pretreated for 30 mins followed by LPS stimulation by Western blot analysis; format: cell-based; conditions: dose 5-20 µM
BV-2 [12] = assay: Anti-inflammatory activity against LPS-induced mouse BV-2 cells assessed as reduction in TNF-alpha mRNA expression pre-incubated for 1 hrs followed by LPS addition and measured after 6 hrs by RT-PCR method; format: functional, cell-based; conditions: dose 5-20 µM, time 7.0 hrs
BV-2 [13] = assay: Anti-inflammatory activity against LPS-induced mouse BV-2 cells assessed as reduction in IL-1beta mRNA expression pre-incubated for 1 hrs followed by LPS addition and measured after 6 hrs by RT-PCR method; format: functional, cell-based; conditions: dose 5-20 µM, time 7.0 hrs
BV-2 [14] = assay: Inhibition of LPS-induced NFkappaB activation in mouse BV2 cells assessed as reduction in p65 phosphorylated protein expression level pre-incubated for 30 mins followed by LPS addition by Western blot analysis; format: cell-based; conditions: dose 5-20 µM
BV-2 [15] = assay: Inhibition of LPS-induced NFkappaB activation in mouse BV2 cells assessed as reduction in IkappaBalpha phosphorylated protein expression level pre-incubated for 30 mins followed by LPS addition by Western blot analysis; format: cell-based; conditions: dose 5-20 µM
[16] = target: MAP kinase p38 (Mus musculus) (UniProt P47811+O08911+Q9WUI1+Q9Z1B7); assay: Inhibition of LPS-induced p38 phosphorylation in mouse BV-2 cells pretreated for 30 mins followed by LPS stimulation by Western blot analysis; format: cell-based; conditions: dose 5-20 µM
[17] = Inhibition of LPS-induced ERK phosphorylation in mouse BV-2 cells pretreated for 30 mins followed by LPS stimulation by Western blot analysis; format: cell-based; conditions: dose 5-20 µM

c-Jun N-terminal kinase (Mus musculus), sequence (Q61831 whole entry, looked up): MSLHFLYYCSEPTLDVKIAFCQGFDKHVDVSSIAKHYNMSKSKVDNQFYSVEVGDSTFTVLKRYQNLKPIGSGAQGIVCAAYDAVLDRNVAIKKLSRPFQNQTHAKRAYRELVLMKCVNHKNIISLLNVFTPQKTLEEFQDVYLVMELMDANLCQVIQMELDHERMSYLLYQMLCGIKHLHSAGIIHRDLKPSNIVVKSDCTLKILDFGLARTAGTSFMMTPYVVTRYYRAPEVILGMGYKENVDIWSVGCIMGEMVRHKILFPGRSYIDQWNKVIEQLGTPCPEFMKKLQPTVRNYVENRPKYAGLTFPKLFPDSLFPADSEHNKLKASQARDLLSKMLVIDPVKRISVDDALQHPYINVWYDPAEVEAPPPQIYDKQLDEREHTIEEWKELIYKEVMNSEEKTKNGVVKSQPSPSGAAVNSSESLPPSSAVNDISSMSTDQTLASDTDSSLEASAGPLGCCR
c-Jun N-terminal kinase (Mus musculus), sequence (Q91Y86 whole entry, looked up): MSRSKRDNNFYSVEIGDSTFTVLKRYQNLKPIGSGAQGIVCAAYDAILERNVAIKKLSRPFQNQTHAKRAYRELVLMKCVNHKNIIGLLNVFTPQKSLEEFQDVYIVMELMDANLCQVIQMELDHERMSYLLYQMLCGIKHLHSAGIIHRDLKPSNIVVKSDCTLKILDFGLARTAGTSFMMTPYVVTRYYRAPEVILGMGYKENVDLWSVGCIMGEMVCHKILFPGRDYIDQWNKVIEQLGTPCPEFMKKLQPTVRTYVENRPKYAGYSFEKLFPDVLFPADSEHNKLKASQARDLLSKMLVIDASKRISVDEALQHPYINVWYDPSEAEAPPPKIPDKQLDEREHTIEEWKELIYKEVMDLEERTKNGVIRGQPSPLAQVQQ
c-Jun N-terminal kinase (Mus musculus), sequence (Q9WTU6 whole entry, looked up): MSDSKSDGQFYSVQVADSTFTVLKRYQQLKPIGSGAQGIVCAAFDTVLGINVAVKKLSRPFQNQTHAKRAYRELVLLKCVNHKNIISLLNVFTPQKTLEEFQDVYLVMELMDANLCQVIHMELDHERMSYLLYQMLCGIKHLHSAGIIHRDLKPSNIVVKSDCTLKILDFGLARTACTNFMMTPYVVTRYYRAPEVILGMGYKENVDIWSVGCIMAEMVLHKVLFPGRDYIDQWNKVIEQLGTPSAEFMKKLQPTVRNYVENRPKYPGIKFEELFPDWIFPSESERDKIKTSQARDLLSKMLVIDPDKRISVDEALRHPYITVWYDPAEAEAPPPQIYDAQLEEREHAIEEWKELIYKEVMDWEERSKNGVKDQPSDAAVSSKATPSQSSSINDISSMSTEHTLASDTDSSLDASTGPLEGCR

Compound | viability at 24 h, 20 µM [1] [%] | inhibition at 20 µM (BV-2 [2]) [%] | also measured
O=C1C(c2ccccc2)=C(c2ccccc2)C(=O)N1c1ccc([N+](=O)[O-])cc1 | 99.4 | 19.3 | 
Cc1ccc(N2C(=O)C(c3ccccc3)=C(c3ccccc3)C2=O)cc1 | 97.8 | 25.8 | 
COc1ccc(N2C(=O)C(c3ccccc3)=C(c3ccccc3)C2=O)cc1 | 97.2 | 32.3 | 
O=C1C(c2ccccc2)=C(c2ccccc2)C(=O)N1c1ccc(I)cc1 | 100 | 22.5 | 
O=C1CCC(N2C(=O)c3ccccc3C2=O)C(=O)N1 (centres undefined) [THALIDOMIDE] | 93.5 | 0 | inhibition (BV-2 [3]): inactive; inhibition at 15 µM (RAW264.7): 15%
CN(C)c1cccc(N2C(=O)C(c3ccccc3)=C(c3ccccc3)C2=O)c1 | 90.2 | 82.1 | pIC50 (BV-2 [4]): 4.90
CC(C)(C)OC(=O)Nc1ccc(N2C(=O)C(c3ccccc3)=C(c3ccccc3)C2=O)cc1 | 97.1 | 39.6 | 
O=C1C(c2ccccc2)=C(c2ccccc2)C(=O)N1c1ccc(C(F)(F)F)cc1 | 99.4 | 12.4 | 
CC(C)(C)c1ccc(N2C(=O)C(c3ccccc3)=C(c3ccccc3)C2=O)cc1 | 100 | 18.4 | 
O=C1C(c2ccccc2)=C(c2ccccc2)C(=O)N1c1ccc(F)cc1 | 100 | 10.3 | 
O=C1C(c2ccccc2)=C(c2ccccc2)C(=O)N1Cc1ccccc1 | 100 | 21.9 | 
O=C1C(c2ccccc2)=C(c2ccccc2)C(=O)N1CCc1ccccc1 | 100 | 14.2 | 
N#Cc1ccc(N2C(=O)C(c3ccccc3)=C(c3ccccc3)C2=O)cc1 | 80 | 6.9 | 
Nc1ccc(N2C(=O)C(c3ccccc3)=C(c3ccccc3)C2=O)cc1 | 90.2 | 27.6 | 
O=C1C(c2ccccc2)=C(c2ccccc2)C(=O)N1c1ccc(Br)cc1 | 95.7 | 11.5 | 
O=C1CCC(N2C(=O)C(c3ccccc3)=C(c3ccccc3)C2=O)C(=O)N1 (centres undefined) | 98.5 | 10.2 | pIC50 (BV-2 [4]): < 4.30
O=C1C(c2ccccc2)=C(c2ccccc2)C(=O)N1c1ccc(OC(F)(F)F)cc1 | 94.5 | 12.9 | 
O=C1C(c2ccccc2)=C(c2ccccc2)C(=O)N1c1ccc(Cl)cc1 | 93.9 | 16 | 
CN(C)c1ccc(N2C(=O)C(c3ccccc3)=C(c3ccccc3)C2=O)cc1 | 98.9 | 83.5 | inhibition (BV-2 [4]): Dose-Dependent Effect; pIC50 (BV-2 [4]): 5.15; Activity (BV-2 [5]): Dose-Dependent Effect; Activity (BV-2 [6]): Dose-Dependent Effect; Activity (BV-2 [7]): Non-Toxic; Activity (BV-2 [8]): Dose-Dependent Effect; Activity (BV-2 [9]): Dose-Dependent Effect; Activity (BV-2 [10]): Dose-Dependent Effect; inhibition [11]: inactive; Activity (BV-2 [12]): Dose-Dependent Effect; Activity (BV-2 [13]): Dose-Dependent Effect; inhibition (BV-2 [14]): Dose-Dependent Effect; inhibition (BV-2 [15]): Dose-Dependent Effect; inhibition [16]: Dose-Dependent Effect; inhibition [17]: inactive
O=C1C(c2ccccc2)=C(c2ccccc2)C(=O)N1c1ccc(N2CCCCC2)cc1 | 87.4 | 5.8 | 
CN(C)c1ccccc1N1C(=O)C(c2ccccc2)=C(c2ccccc2)C1=O | 100 | 81.6 | pIC50 (BV-2 [4]): 4.88
O=C1C(c2ccccc2)=C(c2ccccc2)C(=O)N1c1ccccc1 | 93.3 | 22.5 | 
